In patent US7691862B2, “Method and composition for treating periodontal disease” (Regena Therapeutics LC, priority 2003, dated 2010):
Read-outs that look alike come from different tables or passages of the source. Marks after values point to notes of the source that are not given here.

Columns and labels:
[1] = in vivo; cited from earlier work
albumin = albumin (Homo sapiens, UniProt P02768); conditions: cited from earlier work
[2] = cited from earlier work
[3] = test system: periodontal pockets of patients with moderate-to-advanced periodontitis; experiment: Randomized double-blind placebo-controlled study: change in periodontal pocket probing depth after scaling, root planing and curettage; assay type: in vivo, human
Protocol: 1.1 Overall Study Design and Plan This was a randomized, double-blind, single-center, multiple-dose, parallel-group, placebo-controlled study. At baseline, patients presenting at Periodontal Specialists of Ames for the treatment of periodontitis were screened for the study. Patients were assessed using medical histories, dental histories, blood pressure, pulse, pregnancy tests (if female), periapical radiographs and periodontal examinations. Patients who met all of the inclusion and exclusion criteria, appeared in good health other than periodontitis, and who had documented moderate-to-advanced periodontitis with at least four destructive periodontal-diseased pockets (ranging from 5 to 12 mm in depth) were eligible for study participation. Each patient underwent a gross debridement, following which, he/she was randomized to one of four treatment groups:
Patients randomized to receive doxycycline (Groups B and C) were administered a loading dose of doxycycline 100 mg BID for one day and then instructed to take doxycycline 100 mg QD for nine consecutive days; patients in Groups A and D received matching doxycycline placebo for ten days.
On the last day of doxycycline/placebo administration, patients reported to the clinical research facility and underwent (under local anesthesia) dental sub-gingival scaling, root planing, and curettage on one side of the mouth. Following completion of these procedures, patients randomized to misoprostol (Groups C and D) received an application of a misoprostol paste (10 ug/site) and those randomized to placebo (Groups A and B) received placebo paste. Patients were instructed to apply the paste to each quadrant four times daily for the next week. One week later, patients returned to the clinical research facility and underwent sub-gingival scaling, root planing, and curettage on the other side of the mouth. The misoprostol/placebo paste was administered as described above. Patients were instructed to apply the paste to the affected teeth four times daily for an additional six weeks. They were also instructed to the proper use of the rubber tip for six weeks.
At two weeks post-treatment, patients were contacted for adverse event monitoring and compliance with study drug administration. Six weeks following the second sub-gingival scaling, planing, and curettage procedure, patients returned to the clinical research facility for periodontal and adverse event assessments. Dental prophylaxis, including periodontal maintenance was repeated at the three month intervals, with final assessments performed at 52 weeks post-treatment.
The initial dose of the misoprostol/placebo paste was applied by the periodontist, and all subsequent doses were applied by the patient. Each affected tooth was wiped with a 2×2 sponge to dry the tissue. Then 0.2 ml of the paste was dispensed from the 10.0 ml syringe onto the tip of the finger and applied to each affected tooth. The patient then sipped a little water and gently flushed the paste to gel it. Patients were instructed not to eat anything for at least one hour.
1.5.1.2.1. Periodontal Pocket Probing Depth Periodontal probing depths were measured at baseline, at six weeks post-treatment, and at 3, 6, 9 and 12 months post-treatment. More recently, a larger study at three weeks post treatment was performed as described in Example
To measure the periodontal pocket probing depth, a manual University of Michigan off-set probe marked in millimeters was inserted into the pocket with the long axis parallel to the long axis of the tooth. Insertion was continued to the base of the pocket with gentle pressure until a distinct resistance was felt.
The measurement from the tip of the probe to the gingival margin (GM-BP, gingival margin to the base of the pocket) was recorded in millimeters. On measurements of proximal sites the gingival margin may cross the probe at an angle, and the highest point on the side of the probe was read. […]

[4] = test system: canine mandible alveolar bone; conditions: cited from earlier work
[5] = test system: mammalian calvarial cells; conditions: in vitro culture; cited from earlier work
[6] = 6 Weeks post-treatment, baseline pocket depth 5 mm
[7] = 6 Weeks post-treatment, baseline pocket depth 6 mm
[8] = 6 Weeks post-treatment, baseline pocket depth 7 mm
[9] = 6 Weeks post-treatment, baseline pocket depth 8 mm
[10] = 6 Weeks post-treatment, baseline pocket depth 9 mm
[11] = 6 Weeks post-treatment, baseline pocket depth 10 mm
[12] = 6 Weeks post-treatment, baseline pocket depth ≦4 mm
[13] = 52 Weeks post-treatment, baseline pocket depth 5 mm
[14] = 52 Weeks post-treatment, baseline pocket depth 6 mm
[15] = 52 Weeks post-treatment, baseline pocket depth 7 mm
[16] = 52 Weeks post-treatment, baseline pocket depth 8 mm
[17] = 52 Weeks post-treatment, baseline pocket depth 9 mm
[18] = 52 Weeks post-treatment, baseline pocket depth 10 mm
[19] = 52 Weeks post-treatment, baseline pocket depth ≦4 mm

Chain of albumin (P02768 25-609, species assumed): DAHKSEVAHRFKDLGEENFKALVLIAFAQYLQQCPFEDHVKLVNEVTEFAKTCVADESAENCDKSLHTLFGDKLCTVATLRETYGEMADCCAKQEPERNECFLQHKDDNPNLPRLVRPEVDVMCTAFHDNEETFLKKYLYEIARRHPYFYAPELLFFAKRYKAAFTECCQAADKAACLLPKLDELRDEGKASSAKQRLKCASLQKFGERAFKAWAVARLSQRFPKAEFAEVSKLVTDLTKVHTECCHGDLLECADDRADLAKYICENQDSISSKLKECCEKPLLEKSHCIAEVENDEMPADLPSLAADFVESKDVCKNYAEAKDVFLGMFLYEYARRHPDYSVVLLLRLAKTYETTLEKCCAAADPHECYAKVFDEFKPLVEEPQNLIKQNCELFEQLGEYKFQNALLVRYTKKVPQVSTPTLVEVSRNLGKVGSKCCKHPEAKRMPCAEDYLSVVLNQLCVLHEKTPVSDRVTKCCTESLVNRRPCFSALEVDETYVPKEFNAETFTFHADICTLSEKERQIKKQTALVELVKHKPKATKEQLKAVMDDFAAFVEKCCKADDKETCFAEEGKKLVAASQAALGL

SMILES | Mean Changes in Pocket Depths Using Patient as Inference [3, 6] | Mean Changes in Pocket Depths Using Patient as Inference [3, 7] | Mean Changes in Pocket Depths Using Patient as Inference [3, 8] | Mean Changes in Pocket Depths Using Patient as Inference [3, 9] | Mean Changes in Pocket Depths Using Patient as Inference [3, 10] | Mean Changes in Pocket Depths Using Patient as Inference [3, 11] [mm] | Mean Changes in Pocket Depths Using Patient as Inference [3, 12] [mm] | Mean Changes in Pocket Depths Using Patient as Inference [3, 13] | Mean Changes in Pocket Depths Using Patient as Inference [3, 14] | Mean Changes in Pocket Depths Using Patient as Inference [3, 15] | Mean Changes in Pocket Depths Using Patient as Inference [3, 16] | Mean Changes in Pocket Depths Using Patient as Inference [3, 17] | Mean Changes in Pocket Depths Using Patient as Inference [3, 18] [mm] | Mean Changes in Pocket Depths Using Patient as Inference [3, 19] | further results
CCCCC(C)(O)C/C=C/[C@H]1[C@H](O)CC(=O)[C@@H]1CCCCCCC(=O)O (mixture of isomers) [Misoprostolic acid] | – | – | – | – | – | – | – | – | – | – | – | – | – | – | half-life [1]: about 30 minutes; albumin bound (albumin): approximately 85%
CCCC[C@@](C)(O)C/C=C/[C@H]1[C@H](O)CC(=O)[C@@H]1CCCCCCC(=O)OC (racemic) [Misoprostol, methyl-(11α, 13E)-11,16-dihydroxy-16-methyl-9-oxoprost-13-en-1-oate] | 1.57 mm | 2.13 mm | 2.68 mm | 2.84 mm | 4.46* mm | 4.70 | 0.58 | 1.76*† mm | 2.49† mm | 3.28*† mm | 3.90*† mm | 5.06*† mm | 4.75 | 0.75*† mm | storage stability ([2]; dissolved in absolute alcohol (ethanol) and frozen): stable for at least a year; storage stability ([2]; dry state, stabilized with hydroxypropyl methyl cellulose): a couple years; stability of creams ([2]; in the presence of water, breaks down to prostaglandin A): creams last approximately only one week; improvements in pocket depths compared to scaling, root planning and curettage alone ([3]; 52 weeks post-treatment): statistically significant improvements; mean changes in pocket depths compared to doxycycline+placebo ([3]; 52 weeks post-treatment, Wilcoxon rank-sum): statistically significantly greater improvements; tooth mobility ([3]; along with the decreases in pocket depth): decreases in tooth mobility; patients requiring surgical intervention to stop the progression of the disease ([3]; in vivo): none of the patients; reduction in pocket depth ([3]; original pocket depth 10 mm or greater, after 6 weeks): 40-50%
C[C@H]1c2cccc(O)c2C(=O)C2=C(O)[C@]3(O)C(=O)C(C(N)=O)=C(O)[C@@H](N(C)C)[C@@H]3[C@@H](O)[C@@H]21 [Doxycycline] | 1.96* mm | 2.63* mm | 3.04* mm | 3.57* mm | 4.23* mm | 4.13 | 0.84 | 0.42 mm | 0.79 mm | 1.42 mm | 1.71 mm | 2.86 mm | 3.28 | −0.22* mm | improvement in pocket depth (from the Figures) ([3]; pocket depth originally 10 mm, Week 52): 3 mm; reduction in depth (from the Figures) ([3]; pocket depth originally 10 mm, at 6 weeks): ~5 mm
CCCCC[C@H](O)/C=C/[C@H]1[C@H](O)CC(=O)[C@@H]1CCCCCCC(=O)O [PGE1, prostaglandin E1] | – | – | – | – | – | – | – | – | – | – | – | – | – | – | new bone formation; thickness and appositional rate of alveolar bone ([4]; local application, adult dogs (Marks 1988)): increases the thickness and appositional rate of alveolar bone; alveolar bone height, cementum and periodontal ligaments ([4]; local delivery, premolars and molars of adult dogs (Marks 1994)): increases alveolar bone height and regenerates cementum and periodontal ligaments; formation of mineralized nodules [5]: increases the formation of mineralized nodules
